Experimental data as given in patent US20210115000A1, “NILE RED DERIVATIVES FOR IMPROVED RATIOMETRIC IMAGING FOR NERVE SPECIFIC CONTRAST” (Oregon Health & Sciences University, priority 2018, published 2021).
“Also recorded” adds a separate entry of the source.

Tests used:
[1] = tested on: CD-1 mouse sciatic nerve and surrounding muscle and adipose tissues; assay: Ex vivo tissue section staining, imaging and fluorescence quantification; settings: for tissue fluorescence intensity, region of interest analysis / tissue staining specificity on mouse tissue sections: 100 μM, 40 min; for tissue fluorescence intensity, region of interest analysis: n=4 tissue sections; for tissue staining specificity on mouse tissue sections: sections with nerve, muscle, adipose; for adipose to muscle ratio: ex vivo tissue sections, vs control autofluorescence
Method: Cryosections of CD-1 mouse sciatic nerve and surrounding muscle and adipose tissues from unrelated experiments were cut from optimal cutting temperature (OCT, Fisher Scientific, Hampton, N.H.) embedded frozen tissues. Cryosectioned tissues were captured on superfrost plus slides (Fisher Scientific) at 10 μm thickness. The tissue sections were washed with 1×PBS for 2 minutes to remove OCT, and then fixed with 2% PFA for 15 mins. The tissue sections were then washed with 0.1% Tween 20 in 1×PBS (3×5 mins), followed by incubation with 100 μM of Nile Red and each Nile Red derivative formulated using 10% DMSO, 5% Kolliphore (Sigma Aldrich, St. Louis, Mo.), 63.75% FBS, and 21.25% 1× PBS as previously described.^26 Tissue sections were incubated with the formulated fluorophores for 40 minutes at room temperature, followed by washing with blank formulation not containing fluorophore (2×5 mins). Each tissue section was then washed with 1×PBS (2×5 mins), fixed for 15 minutes using 2% PFA, followed by a final wash with 1×PBS for 5 mins before mounting in glycerol (Fisher Scientific). Images were collected at an exposure time of 650 ms for all Nile Red and Nile Red derivative stained sections. Four tissue sections were stained for Nile Red and each Nile Red derivative, facilitating adipose to muscle and adipose to nerve contrast ratio quantification where tissue intensities were quantified using region of interest analysis with custom written MatLab code (The MathWorks, Natick, Mass.). For each tissue type, a representative area was selected, where a threshold based mask was set to determine tissue from background. The mean tissue intensity was calculated in adipose, nerve and muscle tissues as the intensity per second and used to calculate the adipose to nerve and adipose to muscle contrast ratios. All ex vivo and cellular fluorescence and white light images were collected using a Zeiss AxioObserver inverted fluorescence microscope (Carl Zeiss, Oberkochen, Germany). All cell images were collected at 40× magnification and all tissue section images were collected at 10× magnification. Fluorescence excitation was completed using a Photofluor II broad band light source (89 North, Burlington, Vt.) filtered with a 545±12.5 nm bandpass excitation filter. Fluorescence images were collected using a 605±35 nm bandpass emission filter and a AxioCam 506 monochromo camera (Zeiss). All Filters were Purchased from Chroma Technologies (Bellows Falls, Vt.).

[2] = tested on: nerve, adipose and muscle tissue at nerve sites; assay: In vivo co-staining with Oxazine 4, ratiometric imaging and ROC curve analysis; parameters: species or system male CD-1 mice; settings: for ROC AUC of nerve-to-muscle contrast, change: 30 min after staining compared to immediately following staining
Text: In vivo images were acquired using a previously published, custom-built small animal fluorescence imaging system, described briefly here.^27 Fluorescent images were obtained using a Qimaging EXi Blue monochrome camera (Surrey, British Columbia, CA) with a removable Bayer mask for collection of co-registered color and fluorescence images. A Photofluor II broad band light source (89 North) was expanded onto the surgical field through a liquid light guide and used unfiltered for white light illumination. Nile Red and NR5 were excitated using a 545 t 12.5 nm bandpass filter, while fluorescence emission images were collected with a 605±35 nm bandpass filter. Oxazine 4 (Exciton, West Chester, Ohio) was used for nerve and adipose co-staining and ratiometic imaging studies. Oxazine 4 was excited using a 620±30 nm bandpass filter, while fluorescence emission images were collected through a 700±37.5 nm bandpass filter. Approval for the use of animals in the study was obtained from the Institutional Animal Care and Use Committee (IACUC) at Oregon Health and Science University (OHSU). In vivo staining studies were carried out on male CD-1 mice using an optimized direct/topical administration protocol.^2 Staining was performed concurrently on no more than two nerve sites (sciatic nerve or brachial plexus) per mouse. Nile Red and all Nile Red derivatives were formulated in a previously published co-solvent formulation (10% DMSO, 5% Kolliphor, 63.75% serum and 21.25% PBS^14) at a final concentration of 100 μM. Each formulated fluorophore was incubated for 5 minutes on the nerve site (n=4 nerve sites/fluorophore), followed by 9 short flushes with PBS. The nerve site was then incubated with blank co-solvent not containing fluorophore for 5 minutes, followed again by 9 short flushes with PBS. In vivo co-staining was completed with (1) Nile Red and Oxazine 4 as well as (2) NR5 and Oxazine 4. For these studies, co-solvent formulated Oxazine 4 ([…]) was incubated on the nerve site for 5 minutes followed by 9 short flushes with PBS. The co-solvent formulated Nile Red or NR5 (100 μM) was then incubated on the nerve site for 5 minutes and also followed by 9 short flushes with PBS. Co-registered (1) Nile Red and Oxazine 4 or (2) NR5 and Oxazine 4 images were collected from n=4 nerve sites per groups (1) and (2). Ratiometric images were calculated and quantified using region of interest analysis on the white light images to identify the nerve, adipose and muscle tissue types. Due to the known cross talk of Oxazine 4 into the Nile Red channel,^2 the Oxazine 4 image was subtracted from the Nile Red or NR5 image resulting in an image of only adipose. The ratiometric images were then calculated as the Oxazine 4 image minus the corrected Nile Red or NR5 image divided by the corrected Nile Red or NR5 image. Receiver Operator Characteristic (ROC) curve analysis was performed to assess differences between the ratiometric images, where the area under the curve (AUC) was used as the metric to differentiate between groups (1) and (2) using custom written MatLab code.^28

[3] = Spectroscopic analysis: absorbance, emission and quantum yield of Nile Red derivatives; type: physicochemical
Method: Tandem liquid chromatography mass spectroscopy (LCMS) analysis (Agilent 1260 LC system with a 6224 time of flight (TOF) MS, Agilent, Santa Clara, Calif.) was performed using a 2.7 micron C18 column (4.6×50 mm, Agilent). High performance liquid chromatography (HPLC) purification (Agilent 1260 system with a preparative pump) was performed using a 5 micron C18 column (21.2×150 mm, Agilent). For both HPLC and LCMS, the mobile phase consisted of HPLC grade acetonitrile and water, treated with 0.1% formic acid. Spectroscopic analysis was performed on a Spectramax M5 spectrometer (Molecular Devices, Sunnyvale, Calif.) using a quartz cuvette with a 1 cm pathlength. Quantum yield was calculated according to equation (1).
Where Ø is the quantum yield, F is the integrated fluorescence intensity, f is the absorbance at the excitation wavelength and n is the refractive index of the solvent. S refers to the quantum yield standard (Rhodamine B)^25 and X refers to the unknown sample.

SMILES | tissue fluorescence intensity, region of interest analysis [1] | tissue staining specificity on mouse tissue sections [1] | adipose to muscle ratio [1] | ROC AUC of nerve-to-muscle contrast, change [2] | Max Abs ([3]; in DMSO) [nm] | Max Em ([3]; in DMSO) [nm] | absorbance maximum ([3]; in toluene) [nm] | emission maximum ([3]; in toluene) [nm] | z-score, nerve-to-muscle contrast ([2]; NR5 and oxazine 4 costaining versus oxazine 4 alone, 30 min after staining) | z-score, nerve-to-muscle contrast ([2]; NR5 costaining with oxazine 4 compared to Nile Red costaining with oxazine 4, 30 min after staining) | z-score, nerve-to-adipose contrast ([2]; NR versus NR5 costaining with oxazine 4, 30 min after staining) | z-score, nerve-to-adipose contrast ([2]; NR versus NR5 costaining with oxazine 4, first time point (immediately after staining implied)) | z-score, nerve-to-muscle contrast ([2]; NR versus NR5 costaining with oxazine 4, immediately following staining) | ROC AUC nerve contrast ([2]; costaining with Oxazine 4, 30 minutes post direct administration) | ROC AUC nerve contrast ([2]; costaining with Oxazine 4, immediately following direct administration) | z-score, nerve-to-adipose contrast ([2]; oxazine 4 only staining versus NR5 costaining with oxazine 4, 30 min after staining) | z-score, nerve-to-adipose contrast ([2]; oxazine 4 only staining versus NR5 costaining with oxazine 4, first time point (immediately after staining implied)) | z-score, nerve-to-muscle contrast ([2]; oxazine 4 only staining versus NR5 costaining with oxazine 4, immediately following staining) | Stokes Shift ([3]; in DMSO) [nm] | QY (quantum yield) ([3]; in DMSO, standard Rhodamine B)
CCN(CC)c1ccc2nc3c4ccccc4c(=O)cc-3oc2c1 [Nile Red] | strong nerve and adipose fluorescence staining; also recorded: highest overall tissue fluorescence | adipose specificity | increased contrast over control autofluorescence adipose to muscle ratio; also recorded: highest contrast ratios | substantial drop in AUC value | 550 | 630 | 520 | 570 |  |  |  |  |  |  |  |  |  |  |  | 
CCN(CC)c1ccc2nc3c4ccc(-c5ccc(C#N)cc5)cc4c(=O)cc-3oc2c1 [NR5, 4-(9-(diethylamino)-5-oxo-5H-benzo[a]phenoxazin-3-yl)benzonitrile] | strong nerve and adipose fluorescence staining; also recorded: substantially higher adipose, nerve and muscle tissue fluorescence | adipose specificity; also recorded: brightest overall tissue staining compared to the other Nile Red derivatives | increased contrast over control autofluorescence adipose to muscle ratio; also recorded: highest contrast ratios | little change | 560 | 640 |  |  | -21.32 | 99.96 | 98.20 | 25.26 | 21.87 | improved nerve to adipose and nerve to muscle contrast ratios; also recorded: significantly higher nerve-to-adipose contrast | slightly improved values | 16.12 | 28.63 | 15.22 | 80 | 0.54
